Experimental data reported in PMC8861050, “Design, synthesis and evaluation of novel 2-oxoindoline-based acetohydrazides as antitumor agents” (Scientific Reports, 2022).
Where two headings read alike, the source gives them in different places.

Legend:
PC3 (prostate cancer) [1] = system: PC3 (prostate cancer); parameters: method as in PMID 30054973; details: positive control, for relative comparison; read-out: Cytotoxicity (IC50) PC3; cited from earlier work
NCI-H23 (lung cancer) [2] = system: NCI-H23 (lung cancer); parameters: method as in PMID 30054973; details: positive control, for relative comparison; read-out: Cytotoxicity (IC50) NCI-H23; cited from earlier work
SW620 cells = assay: Morphology changes of treated cells; format: cell-based, human; details: 24 h treatment (50 μM; 4o 5, 10, 30 μM; PAC-1 30 μM)
Method: (§1) Figure 7 Morphology changes of cells treated with compound 4f, 4h, 4n, 4o, 4p or PAC-1. SW620 at 2.5 × 10^5 cells/mL (500 µL in 24 well) were incubated for 24 h and then further treated with compounds or PAC-1 (50 μM) for 24 h. Cells were photographed using an Imaging Device (Celldiscoverer 7) with ×20 (A) and ×40 (B) lens. Scale bar: […]. UN untreated, VH vehicle (DMSO. 0.1%). Representative images are shown.
as §1, with “Figure 8” for “Figure 7”, “compound 4o” for “compound 4f, 4h, 4n, 4o, 4p”, “with 4o (5, 10, and 30 μM)” for “with compounds”, “PAC-1 (30” for “PAC-1 (50”

PC3 (prostate cancer) [3] = assay: SRB cytotoxicity assay, PC3; format: cell-based; details: Homo sapiens, 48 h incubation, mean ± SEM of 3 independent experiments
Excerpt: (§2) Three human cancer cell lines: colon cancer (SW620), prostate cancer (PC3), and lung cancer (NCI-H23) were used for sceening the cytotoxicity of the compounds. The cancer cells were purchased from American Type Culture Collection (Manassas, VA, USA). Other reagents/media for cell culture were obtained from GIBCO (Grand Island, New York, USA). The testing cancer cells were culture in Dulbecco’s Modified Eagle Medium until confluence. Then, they were trypsinized and suspended at the level of 3 × 10^4 cells/mL of cell culture medium. On day 0, cancer cells were seeded at a volume of 180 µL/well of 96-well plates and incubated for 24 h at 37 °C in a 5% CO2 incubator. On day 1, 20 µL of various concentrations of testing compounds were added to each well of the 96-well plates. Chemicals were dissolved in dimethyl sulfoxide (DMSO, stock) and diluted in culture medium (1% DMSO) before adding to the culture. After 48 h incubation, the sulforhodamine B assay was used for cell density determination with slight modifications[22]–[26]. The Probits were used for the calculation of IC50 values. The reported IC50 were the averages of three independent screening (SD ≤ 10%)[27].
(§3) Two series of compounds synthesized (4a–p and 5a–f) were evaluated for their cytotoxicity against three human cancer cell lines, including SW620 (colon cancer), PC3 (prostate cancer), NCI-H23 (lung cancer), using SRB method as described previously[22] with slight modifications[23]–[26].

[4] = system: U937 human lymphoma cells; assay: Cell cycle analysis (PI, flow cytometry); format: cell-based; details: 50 µM, 24 h
Method: U937 human lymphoma cells (5 × 10^5/mL per well) were plated in 6-well culture plates and allowed to grow for 24 h. In our first experiment, we examined the effects of 4f, 4h, 4n, 4o, 4p, and PAC-1 on cell cycles at 50 µM. In the second experiment, we examined the dose-dependent effect of 4o at 5, 10, and 30 µM and PAC-1 at 30 µM on cell cycles. The cells were treated with compounds for 24 h, and then harvested. The harvested cells were washed twice with ice-cold PBS, fixed in 75% ice-cold ethanol, and stained with propidium iodide (PI) in the presence of RNase at room temperature for 30 min. The stained cells were analyzed for DNA content using a FACScalibur flow cytometer (BD Biosciences, San Jose, CA, USA) and the data were processed using Cell Quest Pro software (BD Biosciences).
(§4) Figure 3 Cell cycle analysis after treatment with some compounds. U937 human lymphoma cells were treated with compounds (50 µM) for 24 h. The harvested cells were stained with propidium iodide (PI) in the presence of RNase and then were analyzed for DNA content by using flow cytometry. Ten thousand cells were acquired (n = 3). UN untreated, VH vehicle (DMSO. 0.1%). Representative histograms (A) and bar graphs (B) are shown. p values were calculated using one-way ANOVA in GraphPad Software (San Diego, CA, USA). *p < 0.01 vs VH control.
as §4, with “Figure 4” for “Figure 3”, “analysis under” for “analysis after”, “with different concentrations of compound 4o.” for “with some compounds.”, “with compound 4o at 5, 10 and 30 µM or PAC-1 (30” for “with compounds (50”

SW620 (colon cancer) = assay: SRB cytotoxicity assay, SW620; format: cell-based; details: Homo sapiens, SW-620, 48 h incubation, mean ± SEM of 3 independent experiments
Excerpt: as §2, §3

U937 cells = system: U937 cells; parameters: method as in PMID 34674294; details: 48 h, as reported, read-out: IC50 in 48-h-cytotoxicity assay; cited from earlier work
[5] = Cytotoxicity on normal mesenchymal stem cells; format: cell-based; details: human bone marrow-derived mesenchymal stem cells; mean ± SEM; read-out: Cytotoxicity (IC50) MSCs
Method: Overally, 5-fluorinated compounds (4i–p and 5d–f) were slightly more cytotoxic than non-fluorinated ones (4a–h, 5a–c). For compounds in series 4a–p, it was observed that, electron-releasing substituents (–OCH3, OH) were generally better than electron-withdrawing groups (–Cl) for cytotoxicity. Especially, compounds with 2-OH substituents produced the best cytotoxicity. The addition of either 4-OCH3 or 3-allyl groups further enhanced cytotoxicity of the related compounds (4g, 4h and 4o, 4p).

NCI-H23 (lung cancer) [6] = assay: SRB cytotoxicity assay, NCI-H23; format: cell-based; details: Homo sapiens, 48 h incubation, mean ± SEM of 3 independent experiments
Excerpt: as §2, §3

caspase-3 = molecular target: T1, caspase-3 (Homo sapiens, UniProt P42574); assay: Caspase-3 activation assay in U937 cell extract; format: cell-based; details: U937 cells, 24 h, 50 µM
T1 construct: endogenous in cells; host or cells: U937 human lymphoma cells
T1 sequence (P42574 1-277): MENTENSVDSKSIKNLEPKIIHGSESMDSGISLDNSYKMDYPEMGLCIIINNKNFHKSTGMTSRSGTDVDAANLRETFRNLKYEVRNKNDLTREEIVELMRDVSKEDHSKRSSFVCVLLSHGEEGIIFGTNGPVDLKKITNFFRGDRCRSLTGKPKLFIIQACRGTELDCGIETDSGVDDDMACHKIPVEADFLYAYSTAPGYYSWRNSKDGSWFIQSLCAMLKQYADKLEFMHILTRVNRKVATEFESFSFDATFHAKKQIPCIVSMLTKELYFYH
Method: Caspase-3 activation assay
Caspase activity was measured by using caspase 3 assay kit according to the manufacturer’s instructions (abcam, MA, USA). U937 human lymphoma cells (5 × 10^5/mL per well) were plated in 6-well culture plates and allowed to grow for 24 h. The cells were treated with compounds for 24 h, and then harvested. The harvested cells were washed twice with ice-cold PBS and treated with lysis buffer included in the kit. Cell lysate (100 µg/50 µL) was mixed with 50 µL of 2 × reaction buffer and 5 µL of DEVD-p-NA substrate as the instruction of caspase-3 assay kit (Abcam, cat. N. ab39401). […] was measured after one-hour incubation.
Next, we selected 5 representative compounds, including 4f, 4h, 4n, 4o and 4p, to investigate their effects on the caspase activity, cell cycle, and apoptosis. […] Thus, we used the extract of U937 cells in caspase-3 activation assay, referring to our previous study. […] However, our compounds unexpectedly were not recorded to activate caspase-3 activity. […] Next, we investigated the effect of PAC-1 and our chemicals on cell cycle and apoptosis by using U937 cells. In the cell cycle analysis, U937 cells were treated with 50 µM of compounds for 24 h, stained with propidium iodide (PI) in the presence of RNase, and then analyzed for DNA content by using flow cytometry. PAC-1 was used in parallel as a positive control.

For `O=c1[nH]cc(F)c(=O)[nH]1` [Compound 5-FU, 5-Fluorouracil], the IC50 (PC3 (prostate cancer) [1]) is listed as 13.6 ± 0.46 µM and the IC50 (NCI-H23 (lung cancer) [2]) is listed as 13.5 ± 3.92 µM.

In the case of `C=CCc1cccc(/C=N/NC(=O)CN2CCN(Cc3ccccc3)CC2)c1O` [PAC-1, reference compound], the Cellular morphology (SW620 cells) is reported as “showed morphology of apoptotic cells”, the IC50 (PC3 (prostate cancer) [3]) is reported as 4.11 ± 0.39 µM and the “Effect on cell cycle distribution” value [4] is reported as “accumulation of cells in G0/G1 phase”. The IC50 (SW620 (colon cancer)) was 5.43 ± 0.18 µM, the IC50 (U937 cells) was 8.47 µM and the IC50 [5] was 9.22 ± 0.12 µM. The IC50 (NCI-H23 (lung cancer) [6]) was 5.11 ± 0.22 µM and the Caspase-3 activation (caspase-3) was “activated caspase-3”.
